Source: PubChem BioAssay AID1259407 (Chemical Carcinogenesis Research Information System (CCRIS), 2018)
Active and inactive are the calls of the source. The rule behind the calls is not given here.

Test system: CCRIS mutagenicity, Ames/micronucleus/aberration tests
Test: CCRIS mutagenicity studies
[1] = Test System: AMES SALMONELLA TYPHIMURIUM, Strain/Indicator: TA98, Metabolic Activation: HAMSTER, LIVER, S-9, AROCLOR 1254 (10%), Method: PREINCUBATION
[2] = Test System: AMES SALMONELLA TYPHIMURIUM, Strain/Indicator: TA98, Metabolic Activation: NONE, Method: PREINCUBATION
[3] = Test System: AMES SALMONELLA TYPHIMURIUM, Strain/Indicator: TA98, Metabolic Activation: RAT, LIVER, S-9, AROCLOR 1254 (10%), Method: PREINCUBATION
[4] = Test System: AMES SALMONELLA TYPHIMURIUM, Strain/Indicator: TA100, Metabolic Activation: HAMSTER, LIVER, S-9, AROCLOR 1254 (10%), Method: PREINCUBATION
[5] = Test System: AMES SALMONELLA TYPHIMURIUM, Strain/Indicator: TA100, Metabolic Activation: NONE, Method: PREINCUBATION
[6] = Test System: AMES SALMONELLA TYPHIMURIUM, Strain/Indicator: TA100, Metabolic Activation: RAT, LIVER, S-9, AROCLOR 1254 (10%), Method: PREINCUBATION
[7] = Test System: AMES SALMONELLA TYPHIMURIUM, Strain/Indicator: TA1535, Metabolic Activation: HAMSTER, LIVER, S-9, AROCLOR 1254 (10%), Method: PREINCUBATION
[8] = Test System: AMES SALMONELLA TYPHIMURIUM, Strain/Indicator: TA1535, Metabolic Activation: NONE, Method: PREINCUBATION
[9] = Test System: AMES SALMONELLA TYPHIMURIUM, Strain/Indicator: TA1535, Metabolic Activation: RAT, LIVER, S-9, AROCLOR 1254 (10%), Method: PREINCUBATION
[10] = Test System: AMES SALMONELLA TYPHIMURIUM, Strain/Indicator: TA1537, Metabolic Activation: HAMSTER, LIVER, S-9, AROCLOR 1254 (10%), Method: PREINCUBATION
[11] = Test System: AMES SALMONELLA TYPHIMURIUM, Strain/Indicator: TA1537, Metabolic Activation: NONE, Method: PREINCUBATION
[12] = Test System: AMES SALMONELLA TYPHIMURIUM, Strain/Indicator: TA1537, Metabolic Activation: RAT, LIVER, S-9, AROCLOR 1254 (10%), Method: PREINCUBATION

Compound	mutagenic call [1]	mutagenic call [2]	mutagenic call [3]	mutagenic call [4]	mutagenic call [5]	mutagenic call [6]	mutagenic call [7]	mutagenic call [8]	mutagenic call [9]	mutagenic call [10]	mutagenic call [11]	mutagenic call [12]	other results
O=C1c2c(O)ccc([N+](=O)[O-])c2C(=O)c2c([N+](=O)[O-])ccc(O)c21	active; positive	active; positive	active; positive	active; positive	active; positive	active; positive	active; positive	active; positive	active; positive	active; positive	active; positive	active; positive	mutagenic call (Test System: AMES SALMONELLA TYPHIMURIUM, Strain/Indicator: TA98, Metabolic Activation: NONE, Method: STANDARD PLATE): active; positive; mutagenic call (Test System: AMES SALMONELLA TYPHIMURIUM, Strain/Indicator: TA98, Metabolic Activation: RAT, LIVER, S-9, AROCLOR 1254, Method: STANDARD PLATE): active; positive; mutagenic call (Test System: AMES SALMONELLA TYPHIMURIUM, Strain/Indicator: TA100, Metabolic Activation: NONE, Method: STANDARD PLATE): active; positive; mutagenic call (Test System: AMES SALMONELLA TYPHIMURIUM, Strain/Indicator: TA100, Metabolic Activation: RAT, LIVER, S-9, AROCLOR 1254, Method: STANDARD PLATE): active; positive; mutagenic call (Test System: AMES SALMONELLA TYPHIMURIUM, Strain/Indicator: TA1535, Metabolic Activation: NONE, Method: STANDARD PLATE): inactive; negative; mutagenic call (Test System: AMES SALMONELLA TYPHIMURIUM, Strain/Indicator: TA1537, Metabolic Activation: NONE, Method: STANDARD PLATE): active; positive; mutagenic call (Test System: AMES SALMONELLA TYPHIMURIUM, Strain/Indicator: TA1537, Metabolic Activation: RAT, LIVER, S-9, AROCLOR 1254, Method: STANDARD PLATE): active; positive; mutagenic call (Test System: AMES SALMONELLA TYPHIMURIUM, Strain/Indicator: TA1538, Metabolic Activation: NONE, Method: STANDARD PLATE): active; positive; mutagenic call (Test System: AMES SALMONELLA TYPHIMURIUM, Strain/Indicator: TA1538, Metabolic Activation: RAT, LIVER, S-9, AROCLOR 1254, Method: STANDARD PLATE): active; positive; mutagenic call (Test System: AMES SALMONELLA TYPHIMURIUM, Strain/Indicator: TA1978, Metabolic Activation: NONE, Method: STANDARD PLATE): active; positive; mutagenic call (Test System: AMES SALMONELLA TYPHIMURIUM, Strain/Indicator: TA1978, Metabolic Activation: RAT, LIVER, S-9, AROCLOR 1254, Method: STANDARD PLATE): active; positive
ClC1CO1 (configuration not stated)	–	–	–	–	–	–	–	–	–	–	–	–	mutagenic call (Test System: CHINESE HAMSTER V-79, Strain/Indicator: V-79/8-AZAGUANINE, Metabolic Activation: NONE, Method: STANDARD PLATE): active; positive; mutagenic call (Test System: CHINESE HAMSTER V-79, Strain/Indicator: V-79/OUABAIN, Metabolic Activation: NONE, Method: STANDARD PLATE): active; positive; mutagenic call (Test System: HUMAN H2E1 CELLS, Strain/Indicator: HPRT/6-THIOGUANINE, Metabolic Activation: NONE, Method: SUSPENSION/MICROTITER PLATE): active; positive
C=CC(=O)OCC(Br)CBr (configuration not stated)	active; positive	inactive; negative	inactive; negative	active; positive	inactive; negative	active; positive	active; positive	active; positive	active; positive	inactive; negative	inactive; negative	inactive; negative	–
CCCCCCCCCCCC(=O)[O][Sn]([CH2]CCC)([CH2]CCC)[O]C(=O)CCCCCCCCCCC	inactive; negative	inactive; negative	inactive; negative	inactive; negative	inactive; negative	inactive; negative	inactive; negative	inactive; negative	inactive; negative	–	–	–	mutagenic call (Test System: AMES SALMONELLA TYPHIMURIUM, Strain/Indicator: TA97, Metabolic Activation: HAMSTER, LIVER, S-9, AROCLOR 1254 (10%), Method: PREINCUBATION): inactive; negative; mutagenic call (Test System: AMES SALMONELLA TYPHIMURIUM, Strain/Indicator: TA97, Metabolic Activation: HAMSTER, LIVER, S-9, AROCLOR 1254 (30%), Method: PREINCUBATION): inactive; negative; mutagenic call (Test System: AMES SALMONELLA TYPHIMURIUM, Strain/Indicator: TA97, Metabolic Activation: NONE, Method: PREINCUBATION): inactive; negative; mutagenic call (Test System: AMES SALMONELLA TYPHIMURIUM, Strain/Indicator: TA97, Metabolic Activation: RAT, LIVER, S-9, AROCLOR 1254 (10%), Method: PREINCUBATION): inactive; negative; mutagenic call (Test System: AMES SALMONELLA TYPHIMURIUM, Strain/Indicator: TA97, Metabolic Activation: RAT, LIVER, S-9, AROCLOR 1254 (30%), Method: PREINCUBATION): inactive; negative; mutagenic call (Test System: AMES SALMONELLA TYPHIMURIUM, Strain/Indicator: TA98, Metabolic Activation: HAMSTER, LIVER, S-9, AROCLOR 1254 (30%), Method: PREINCUBATION): inactive; negative; mutagenic call (Test System: AMES SALMONELLA TYPHIMURIUM, Strain/Indicator: TA98, Metabolic Activation: RAT, LIVER, S-9, AROCLOR 1254 (30%), Method: PREINCUBATION): inactive; negative; mutagenic call (Test System: AMES SALMONELLA TYPHIMURIUM, Strain/Indicator: TA100, Metabolic Activation: HAMSTER, LIVER, S-9, AROCLOR 1254 (30%), Method: PREINCUBATION): inactive; negative; mutagenic call (Test System: AMES SALMONELLA TYPHIMURIUM, Strain/Indicator: TA100, Metabolic Activation: RAT, LIVER, S-9, AROCLOR 1254 (30%), Method: PREINCUBATION): inactive; negative; mutagenic call (Test System: AMES SALMONELLA TYPHIMURIUM, Strain/Indicator: TA1535, Metabolic Activation: HAMSTER, LIVER, S-9, AROCLOR 1254 (30%), Method: PREINCUBATION): inactive; negative; mutagenic call (Test System: AMES SALMONELLA TYPHIMURIUM, Strain/Indicator: TA1535, Metabolic Activation: RAT, LIVER, S-9, AROCLOR 1254 (30%), Method: PREINCUBATION): inactive; negative
CN(C)c1ccc(N=Nc2ccccc2CO)cc1	–	–	–	–	–	–	–	–	–	–	–	–	mutagenic call (Test System: AMES SALMONELLA TYPHIMURIUM, Strain/Indicator: TA98, Metabolic Activation: RAT, LIVER, S-9, N-BENZYLIMIDAZOLE, Method: PREINCUBATION): active; positive
Cc1cc(C)c(N=Nc2c(O)c(S(=O)(=O)O)cc3cc(S(=O)(=O)O)ccc23)cc1C	–	–	–	–	–	–	–	–	–	–	–	–	mutagenic call (Test System: AMES SALMONELLA TYPHIMURIUM, Strain/Indicator: TA100, Metabolic Activation: HAMSTER, LIVER, S-9, Method: PREINCUBATION (PRIVAL METHOD)): active; positive; mutagenic call (Test System: MOUSE LYMPHOMA, Strain/Indicator: L5178Y (TK+/TK-), Metabolic Activation: NONE, Method: SUSPENSION/PLATE): active; positive. reevaluation of results: equivocal; mutagenic call (Test System: MOUSE LYMPHOMA, Strain/Indicator: L5178Y (TK+/TK-), Metabolic Activation: RAT, LIVER, S-9, AROCLOR 1254, Method: SUSPENSION/PLATE): active; positive. reevaluation of results: equivocal
